Patent US12583853B2, “1H-pyrrolo[2,3-b]pyridine derivatives and related compounds as BCL-2 inhibitors for the treatment of neoplastic and autoimmune diseases” (Newave Pharmaceutical Inc., priority 2018, dated 2026)

Tests used:
Bcl-2 = biological target: T1, Bcl-2 (Homo sapiens, UniProt P10415); assay: Bcl-2 competition binding (fluorescence polarization) assay; conditions: for IC50: fluorescence polarization, 3 hours incubation at room temperature, read-out: BCL2 IC50; for BCL2 inhibitor potency in words: statement on the BCL2 IC50 table
T1 construct: purchased R&D Systems, Inc
T1 sequence (P10415 whole entry): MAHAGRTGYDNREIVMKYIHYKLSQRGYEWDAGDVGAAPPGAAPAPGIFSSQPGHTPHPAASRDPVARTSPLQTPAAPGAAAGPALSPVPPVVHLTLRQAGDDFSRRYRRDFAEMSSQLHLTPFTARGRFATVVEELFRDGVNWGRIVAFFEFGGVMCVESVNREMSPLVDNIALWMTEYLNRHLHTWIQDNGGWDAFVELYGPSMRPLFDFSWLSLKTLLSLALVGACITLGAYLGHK
Procedure: Biological Example 1: Bcl-2 Competition Binding (Fluorescence Polarization) Assay
This binding assay was performed in 96-well plate and with each assay contained 15 and 30 nM of labeled peptide and purified Bcl-2 protein (purchased from R&D Systems, Inc). The assay buffer contained 20 mM Hepes (pH 7.0), 50 mM KCl, 5 mM MgCl2, 20 mM Na2MoO4, 0.1 mg/ml Bovine Gamma Globulin and 0.01% NP40. Compounds were diluted in DMSO and added to the final assay with concentration range from 20 μM to 2 nM. The polarization degree (mP) value was determined by BioTek Synergy II with background subtraction after 3 hours of incubation at room temperature. IC50 was calculated using Prism software with sigmoidal dose-response curve fitting. ABT-737 was used as reference compound. Such assays, carried out with a range of doses of test compounds, allowed the determination of an approximate IC50 value.

[1] = cited from earlier work
[2] = in vivo; cited from earlier work
circulating platelets = conditions: clinical trial, patients; cited from earlier work
SCLC H146 cell line = conditions: read-out: IC50 against SCLC H146 cell line; cited from earlier work
Bcl-w = biological target: T2, Bcl-w (Homo sapiens, UniProt Q92843); conditions: cited from earlier work
T2 sequence (Q92843 1-193): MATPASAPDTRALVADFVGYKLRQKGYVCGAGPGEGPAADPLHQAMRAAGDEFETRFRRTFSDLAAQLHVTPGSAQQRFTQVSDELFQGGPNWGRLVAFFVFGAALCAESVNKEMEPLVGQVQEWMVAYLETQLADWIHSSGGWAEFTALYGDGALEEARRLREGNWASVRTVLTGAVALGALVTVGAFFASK

[3] = tested on: xenograft models of small-cell lung cancer and acute lymphoblastic leukemia; conditions: oral administration, alone; cited from earlier work
H345 xenograft = conditions: 100 mg/kg/day, H345 xenograft model; cited from earlier work
Mcl-1 = Mcl-1 (Homo sapiens, UniProt Q07820); conditions: cited from earlier work
Chain of Mcl-1 (Q07820 whole entry, species assumed): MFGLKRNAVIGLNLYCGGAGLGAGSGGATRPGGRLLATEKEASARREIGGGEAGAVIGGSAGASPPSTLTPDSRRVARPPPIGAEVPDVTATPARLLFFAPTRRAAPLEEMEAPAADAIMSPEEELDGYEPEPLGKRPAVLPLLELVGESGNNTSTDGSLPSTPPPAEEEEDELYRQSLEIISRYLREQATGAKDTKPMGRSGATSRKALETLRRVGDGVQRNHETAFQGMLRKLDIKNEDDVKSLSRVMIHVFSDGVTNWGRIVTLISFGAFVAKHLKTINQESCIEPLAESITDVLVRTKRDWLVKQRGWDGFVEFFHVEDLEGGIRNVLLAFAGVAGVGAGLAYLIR

CLL = conditions: read-out: average EC50, apoptosis in CLL; cited from earlier work
RS4; 11 cells = conditions: cited from earlier work
[4] = tested on: xenograft (DoHH2, Granta-519); conditions: single agent or in combination with Bendamustine and other agents; cited from earlier work
RS4; 11 xenografts = conditions: single dose of 100 mg/kg; cited from earlier work

CC1(C)CCC(CN2CCN(c3ccc4c(c3)C(c3cnc5[nH]ccc5c3)CN(S(=O)(=O)c3ccc(NC[C@H]5COCCO5)c([N+](=O)[O-])c3)C4=O)CC2)=C(c2ccc(Cl)cc2)C1 (stereo partly drawn) [Example 2, 6-(4-[[2-(4-chlorophenyl)-4,4-dimethylcyclohex-1-en-1-yl]methyl]piperazin-1-yl)-2-(4-[[(2S)-1,4-dioxan-2-ylmethyl]amino]-3-nitrobenzenesulfonyl)-4-[1H-pyrrolo[2,3-b]pyridin-5-yl]-3,4-dihydroisoquinolin-1-one]
IC50 (Bcl-2): 0.8 nM

CN(C)CC[C@H](CSc1ccccc1)Nc1ccc(S(=O)(=O)NC(=O)c2ccc(N3CCN(Cc4ccccc4-c4ccc(Cl)cc4)CC3)cc2)cc1[N+](=O)[O-] [ABT-737]
aqueous solubility [1]: low aqueous solubility
oral bioavailability [2]: not orally bioavailable

CC1(C)CCC(c2ccc(Cl)cc2)=C(CN2CCN(c3ccc(C(=O)NS(=O)(=O)c4ccc(N[C@H](CCN5CCOCC5)CSc5ccccc5)c(S(=O)(=O)C(F)(F)F)c4)cc3)CC2)C1 [ABT-263]
effect on circulating platelets (circulating platelets): rapid, concentration-dependent decrease in the number of circulating platelets
IC50 (SCLC H146 cell line): 110 nM
Ki (Bcl-w): ≤ 1 nM
tumor response [3]: complete tumor regressions
oral bioavailability [2]: orally bioavailable
TGI (H345 xenograft): 80%
treated tumors indicating at least a 50% reduction in tumor volume (H345 xenograft): 20%

CC1(C)CCC(CN2CCN(c3ccc(C(=O)NS(=O)(=O)c4ccc(NCC5CCOCC5)c([N+](=O)[O-])c4)c(P(C)(=O)c4cnc5[nH]ccc5c4)c3)CC2)=C(c2ccc(Cl)cc2)C1 (centres unmarked) [Example 1, 4-(4-[[2-(4-chlorophenyl)-4,4-dimethylcyclohex-1-en-1-yl]methyl]piperazin-1-yl)-2-[methyl(1H-pyrrolo[2,3-b]pyridin-5-yl)phosphoroso]-N-[3-nitro-4-[(oxan-4-ylmethyl)amino]benzenesulfonyl]benzamide]
IC50 (Bcl-2): 0.45 nM
BCL2 inhibitor potency in words (Bcl-2): highly potent BCL2 inhibitor

CC1(C)CCC(CN2CCN(c3ccc(C(=O)NS(=O)(=O)c4ccc(NCC5CCOCC5)c([N+](=O)[O-])c4)c(Oc4cnc5[nH]ccc5c4)c3)CC2)=C(c2ccc(Cl)cc2)C1 [ABT-199]
activity to Mcl-1 (Mcl-1): no activity
EC50 (CLL): 3 nM
EC50 (RS4; 11 cells): 8 nM
xenograft growth [4]: inhibits xenograft growth
maximal tumor growth inhibition (RS4; 11 xenografts): 95%
tumor growth delay (RS4; 11 xenografts): 152%

C=C(c1cnc2[nH]ccc2c1)c1cc(N2CCN(CC3=C(c4ccc(Cl)cc4)CC(C)(C)CC3)CC2)ccc1C(=O)NS(=O)(=O)c1ccc(NC[C@H]2COCCO2)c([N+](=O)[O-])c1 [Example 3, (S)—N-((4-(((1,4-dioxan-2-yl)methyl)amino)-3-nitrophenyl)sulfonyl)-2-(1-(1H-pyrrolo[2,3-b]pyridin-5-yl)vinyl)-4-(4-((4′-chloro-5,5-dimethyl-3,4,5,6-tetrahydro-[1,1′-biphenyl]-2-yl)methyl)piperazin-1-yl)benzamide]
IC50 (Bcl-2): 1.3 nM
BCL2 inhibitor potency in words (Bcl-2): highly potent BCL2 inhibitor
